Measured values taken from patent publication US20260256733A1, “COMPOSITIONS AND METHODS FOR MODULATING STRESS AND USES THEREOF” (BRIGHTSEED, INC., priority 2023, published 2026).

Experiments:
mGlu2 [1] = target: T1, mGlu2 (Homo sapiens, UniProt Q14416); assay: Standardized bioassay protocol, mGluR2 antagonist/NAM assay; assay type: cell-based; conditions: for Activity Level: 20 μM, mGlu2 activity, control at 100%, greater than control indicates NAM or antagonist; for Bioactivity Class: assay performed at 20 μM
T1 sequence (Q14416 19-872): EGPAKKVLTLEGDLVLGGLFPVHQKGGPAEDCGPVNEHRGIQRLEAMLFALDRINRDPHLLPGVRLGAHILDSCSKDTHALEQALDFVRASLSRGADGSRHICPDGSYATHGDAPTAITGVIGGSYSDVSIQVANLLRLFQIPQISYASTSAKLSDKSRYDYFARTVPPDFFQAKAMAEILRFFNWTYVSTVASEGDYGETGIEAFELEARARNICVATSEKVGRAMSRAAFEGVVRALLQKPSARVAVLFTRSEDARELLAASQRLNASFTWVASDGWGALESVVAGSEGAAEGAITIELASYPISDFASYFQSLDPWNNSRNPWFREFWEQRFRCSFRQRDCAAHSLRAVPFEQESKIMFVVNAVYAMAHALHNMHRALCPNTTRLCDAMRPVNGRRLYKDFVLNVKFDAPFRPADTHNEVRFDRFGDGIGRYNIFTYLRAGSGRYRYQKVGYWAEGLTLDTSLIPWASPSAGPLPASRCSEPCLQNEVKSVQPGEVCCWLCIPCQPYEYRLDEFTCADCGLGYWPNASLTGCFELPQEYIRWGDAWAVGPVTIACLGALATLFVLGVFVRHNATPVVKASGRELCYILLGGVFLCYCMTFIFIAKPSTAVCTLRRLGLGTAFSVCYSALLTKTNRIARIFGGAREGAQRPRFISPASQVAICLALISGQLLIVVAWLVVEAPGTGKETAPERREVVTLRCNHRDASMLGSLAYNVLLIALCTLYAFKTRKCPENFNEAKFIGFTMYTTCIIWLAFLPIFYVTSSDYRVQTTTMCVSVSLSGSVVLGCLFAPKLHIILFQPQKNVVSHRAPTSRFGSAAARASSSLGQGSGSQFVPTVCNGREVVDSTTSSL
Procedure: (§1) A standardized bioassay protocol was followed as illustrated in FIG. 3. In the standardized bioassay protocol, an assay buffer of HBSS with 1% HEPES was used. Cells were seeded overnight at 10,000 cells/well in 20 μl plating reagent. Controls for the experiment were an agonist of L-glutamic acid (AC156212500), agonist of LY354740 (fisher part #: 32-465-0), antagonist of LY341495 (fisher part #: 12-095-0), PAM of BINA (fisher part #: 40-485-0), and NAM of (decoglurant (fisher part #: 50-203-0742).
(§2) The results are illustrated in Table 7 and FIGS. 4 and 5. FIG. 4 illustrates mGlu2 activity greater than control (dotted red line at 100%) is indicative of an mGlu2 negative allosteric modulator or antagonist. The assay was performed at 20 μM. FIG. 5 illustrates mGlu2 activity less than the control (at 100%) is indicative of a mGlu2 positive allosteric modulator or agonist. The assay was performed at 100 μM.

mGlu2 [2] = target: T1, mGlu2; assay: Standardized bioassay protocol, mGluR2 agonist/PAM assay; assay type: cell-based; conditions: for Activity Level: 100 μM, mGlu2 activity, control at 100%, less than control indicates PAM or agonist; for Bioactivity Class: assay performed at 100 μM
Procedure: as §1, §2

SMILES | Activity Level (mGlu2 [1]) | Bioactivity Class (mGlu2 [1]) | Activity Level (mGlu2 [2]) | Bioactivity Class (mGlu2 [2])
O=C1c2cccc(O)c2C(=O)C2C(O)=CC(CO)=CC12 (stereo not drawn) [Compound 4] | 20 μM/191.200% | Antagonist/NAM |  | 
O=C1c2cccc(O)c2C(=O)c2c(O)cccc21 [Compound 6] | 20 μM/142.558% | Antagonist/NAM |  | 
CC(=O)Oc1cccc2c1C(=O)c1c(OC(C)=O)cc(C(=O)O)cc1C2=O [Compound 7] | 20 μM/195.543% | Antagonist/NAM |  | 
O=C(O)c1cc(O)c2c(c1)C(=O)c1cccc(O)c1C2=O [Compound 8] | 20 μM/749.225% | Antagonist/NAM |  | 
COc1cc(O[C@@H]2O[C@H](CO)[C@@H](O)[C@H](O)[C@H]2O)c2c(O)c(C(C)=O)c(C)cc2c1 [Compound 9] | 20 μM/107.501% | Antagonist/NAM |  | 
Cn1c(=O)[nH]c(=O)c2[nH]cnc21 [Compound 10] | 20 μM/152.609% | Antagonist/NAM |  | 
Cn1cnc2c1c(=O)[nH]c(=O)n2C [Compound 11] | 20 μM/153.003% | Antagonist/NAM |  | 
COC(=O)C1OC(=O)c2cc(O)c(O)c(O)c2C1C(CC(=O)O)C(=O)OC1C(COC(=O)c2ccc(O)c(O)c2)OC(OC(=O)c2cc(O)c(O)c(O)c2)C(O)C1OC(=O)c1cc(O)c(O)c(O)c1 (stereo not drawn) [Compound 12] |  |  | 100 μM/25.688% | Agonist/PAM
Cc1cc(O)c2c(c1)C(=O)c1cc(O)cc(O)c1C2=O [Compound 13] |  |  | 100 μM/9.870% | Agonist/PAM
